Results: patent US20170022201A1, “MACROCYLIC PYRIDINE DERIVATIVES” (Janssen Pharmaceutica NV, priority 2014, published 2017)

Key:
eEF2K = target: T1, eEF2K (Homo sapiens, UniProt O00418); experiment: EF2K cell-based assay (P-EF2 AlphaLISA, 2-deoxyglucose stimulated MCF10A cells); conditions: 2.5 mM 2-deoxyglucose 4 h, phosphorylation of EF2 at Thr 56, pIC50 = -log IC50 (M); for IC50: read-out: eEF2K_C_PThr56 pIC50 (converted)
T1 construct: in the immortalized epithelial breast cell lines, MCF10A; host or cells: MCF10A immortalized breast epithelial cells
T1 sequence (O00418 1-725): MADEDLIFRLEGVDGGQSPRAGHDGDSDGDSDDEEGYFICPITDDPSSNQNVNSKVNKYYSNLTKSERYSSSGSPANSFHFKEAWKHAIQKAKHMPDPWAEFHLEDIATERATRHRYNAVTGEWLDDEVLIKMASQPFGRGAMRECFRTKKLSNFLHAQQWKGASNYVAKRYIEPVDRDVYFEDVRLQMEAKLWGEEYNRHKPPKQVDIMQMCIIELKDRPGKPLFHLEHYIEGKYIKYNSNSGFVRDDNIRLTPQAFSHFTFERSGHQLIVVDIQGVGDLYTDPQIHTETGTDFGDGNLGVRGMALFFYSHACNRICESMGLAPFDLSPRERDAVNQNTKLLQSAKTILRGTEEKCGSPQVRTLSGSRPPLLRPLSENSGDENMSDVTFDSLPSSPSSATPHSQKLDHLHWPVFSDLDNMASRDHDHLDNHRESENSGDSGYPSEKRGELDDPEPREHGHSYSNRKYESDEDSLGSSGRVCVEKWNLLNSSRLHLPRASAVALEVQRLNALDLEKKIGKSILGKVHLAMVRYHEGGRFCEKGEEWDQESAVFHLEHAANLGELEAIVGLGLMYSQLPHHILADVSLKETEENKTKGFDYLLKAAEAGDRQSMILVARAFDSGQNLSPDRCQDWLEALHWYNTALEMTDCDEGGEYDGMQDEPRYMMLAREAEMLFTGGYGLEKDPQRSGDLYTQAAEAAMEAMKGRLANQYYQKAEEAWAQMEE
Method in brief: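 MCF10A cells pretreated with compound for 1 h, then stimulated with 2.5 mM 2-deoxyglucose for 4 h to deplete ATP and activate AMPK. Phospho-EF2 in lysates measured by AlphaLISA.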

PIK3C3 lipid kinase = PIK3C3 lipid kinase (Homo sapiens, UniProt Q8NEB9); experiment: Biochemical Vps34 lipid kinase assay (ADP-Glo); conditions: 20 μM ATP; for remaining activity at 1 µM: 1 h, read-out: VPS34_1microM_%ofcntrl; for remaining activity at 1 µM / VPS34_1microM_%ofcntrl: single dose 1 μM, residual activity compared to control (DMSO); for IC50: serial dilution 10 μM to 0.3 nM, pIC50 = -log IC50 (M)
Sequence of PIK3C3 lipid kinase (Q8NEB9 whole entry): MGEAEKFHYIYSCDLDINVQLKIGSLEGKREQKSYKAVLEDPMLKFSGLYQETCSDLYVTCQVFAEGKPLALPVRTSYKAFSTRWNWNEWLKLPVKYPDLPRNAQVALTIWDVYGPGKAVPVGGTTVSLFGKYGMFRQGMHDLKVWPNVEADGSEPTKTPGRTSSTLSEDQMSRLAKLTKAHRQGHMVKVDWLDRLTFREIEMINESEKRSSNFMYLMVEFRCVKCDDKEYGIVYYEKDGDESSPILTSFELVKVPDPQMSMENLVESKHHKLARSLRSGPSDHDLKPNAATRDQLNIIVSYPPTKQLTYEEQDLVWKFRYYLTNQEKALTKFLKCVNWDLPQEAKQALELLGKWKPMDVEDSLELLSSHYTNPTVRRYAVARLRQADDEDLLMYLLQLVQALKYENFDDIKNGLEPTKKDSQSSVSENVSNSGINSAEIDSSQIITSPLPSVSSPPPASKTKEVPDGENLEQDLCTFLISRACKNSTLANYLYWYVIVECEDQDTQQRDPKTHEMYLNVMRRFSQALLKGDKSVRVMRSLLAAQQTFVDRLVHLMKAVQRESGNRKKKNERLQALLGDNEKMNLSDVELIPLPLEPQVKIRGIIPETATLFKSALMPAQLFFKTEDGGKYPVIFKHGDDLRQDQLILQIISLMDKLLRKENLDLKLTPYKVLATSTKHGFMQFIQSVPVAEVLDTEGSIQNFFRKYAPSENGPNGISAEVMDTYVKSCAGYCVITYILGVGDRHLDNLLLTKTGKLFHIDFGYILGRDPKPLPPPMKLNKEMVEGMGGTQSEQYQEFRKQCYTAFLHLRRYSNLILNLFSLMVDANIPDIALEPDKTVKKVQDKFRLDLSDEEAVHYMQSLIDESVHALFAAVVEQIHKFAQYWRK
Procedure: A non-radiometric kinase assay (ADP-Glo™ Assay, Promega, Madison, Wi, USA) was used for measuring the kinase activity of the PIK3C3 lipid kinase. All kinase assays were performed in 96-well half-area microtiter plates in a 25 μl reaction volume. The reaction cocktail was pipetted in 3 steps in the following order: • 10 μl of ATP solution (in assay buffer, see below) • 5 μl of test sample in 5% DMSO 10 μl of enzyme/substrate mixture
All lipid kinase assays contained 50 mM HEPES (4-(2-hydroxyethyl)-1-piperazineethanesulfonic acid)—NaOH, pH 7.5, 1 mM EGTA ((ethylene glycol tetraacetic acid), 100 mM NaCl, 0.03% CHAPS (3-[(3-Cholamidopropyl) dimethylammonio]-1-propanesulfonate), 2 mM DTT (Dithiothreitol), 20 μM ATP (corresponding to the apparent ATP-Km), kinase (7.6 nM) and substrate (50 μM). The assay for PIK3C3 additionally contained 3 mM MnCl2.
The reaction cocktails were incubated at 30° C. for 60 minutes. The reaction was stopped with 25 μl ADP-Glo™ reagent per well. Plates were incubated for 40 minutes at room temperature, followed by addition of 50 μl kinase detection reagent per well and incubation for 60 minutes at room temperature. Signal was determined with a microplate luminescence reader (Victor, Perkin Elmer). The assay was either performed using a single dose of compound (1 μM final concentration in the assay reaction) with resulting data expressed as residual activity compared to control (DMSO), or using a serial (half-log) dilution of compounds starting at 10 μM and down to 0.3 nM (final concentrations in the assay) with data expressed as the pIC50.

EF2K = target: T2, EF2K (Homo sapiens, UniProt O00418); experiment: Biochemical EF2K lysate-based kinase assay (AlphaLISA p-eEF2 Thr56); conditions: LN-229 cell lysates, 10 mM ATP, pH 6.6; pIC50 = -log IC50 (M); read-out: eEF2K_C_alphalisa pIC50 (converted)
T2 construct: host or cells: LN-229 glioblastoma cell lysate
T2 sequence (O00418 1-725): T1 sequence (O00418 1-725)
Method in brief: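 LN-229 glioblastoma lysate supplied both EF2K and eEF2 substrate; compound incubated with lysate 15 minutes at room temperature at pH 6.6 with 10 mM Mg2+ and 10 mM ATP, then stopped with excess EDTA. Thr56-phosphorylated eEF2 detected by sandwich AlphaLISA, final read after overnight standing.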

Structure (SMILES)	eEF2K_C_PThr56 pIC50 (eEF2K)	remaining activity at 1 µM (PIK3C3 lipid kinase) [%]	IC50 (PIK3C3 lipid kinase) [M]	IC50 (EF2K) [M]	IC50 (eEF2K) [M]	VPS34_1microM_%ofcntrl (PIK3C3 lipid kinase) [%]
O=C1CN2CC3CCC2CN3Cc2cccc(c2)Nc2cc(ccn2)-c2cnc(nc2)NCCCN1 (single isomer, unassigned) [Compound 26]	<5	4.67	6.61e-08	1.07e-06		
CC1c2cccc(c2)Nc2cc(ccn2)-c2cnc(nc2)N2CC(O)CC2CCNC(=O)C2(CC2)N2CCN1CC2 (single isomer, unassigned) [Compound 66]			1.12e-06	6.17e-08	9.12e-07	
O=C1NCCCNc2ncc(cn2)-c2ccnc(c2)Nc2cccc(c2)CN2CCN(CC2)C12COC2 [Compound 10]		18.6	4.57e-07	2.19e-08	1.48e-06	
O=C1CN2CCN(CC2)Cc2cccc(c2)Nc2cc(ccn2)-c2ccc(nc2)CN(CC2CC2)CCN1 [Compound 146]		54.6		3.89e-08	6.61e-07	
O=C1NCCC2CC(O)CN2c2ncc(cn2)-c2ccnc(c2)Nc2cccc(c2)CN2CCN(CC2)C12CC2 (stereo not shown) [Compound 57]			5.01e-06	1.02e-08	3.09e-07	
O=C1CC2CCNC(=O)CN3CCN(CC3)Cc3cccc(c3)Nc3cc(ccn3)-c3cnc(nc3)N2C1 (stereo not shown) [Compound 88]		66.5		6.46e-08	4.57e-07	
O=C1CN2CCN(CC2)Cc2cccc(c2)Nc2cc(ccn2)-c2cnc(nc2)NCCCN1 [Compound 33]			2.19e-07	~2.19e-08	~7.94e-07	
[N-]=[N+]=N[C@H]1C[C@H]2CCNC(=O)C3(CC3)N3CCN(CC3)Cc3cccc(c3)Nc3cc(ccn3)-c3cnc(nc3)N2C1 [Compound 83]		42.3		8.71e-09	6.61e-07	
CC1CN2CCN1Cc1cccc(c1)Nc1cc(ccn1)-c1cnc(nc1)N1CCCC1CCNC(=O)C2 (stereo not shown) [Compound 47]			9.12e-06	8.51e-09	4.17e-07	
CC1CN2CCN1Cc1cccc(c1)Nc1cc(ccn1)-c1cnc(nc1)NCCCNC(=O)C2 (stereo not shown) [Compound 40]		11	2.63e-07	1.62e-07	~5.89e-06	
CNC(=O)C1CCNC(=O)CN2CCN(CC2)Cc2cccc(c2)Nc2cc(ccn2)-c2cnc(nc2)N1 (single isomer, unassigned) [Compound 124]		65.5		3.98e-07	~2.51e-05	
O=C1CN2C3CCC2CN(Cc2cccc(c2)Nc2cc(ccn2)-c2cnc(nc2)NCCCN1)C3 [Compound 42]			7.08e-07	9.77e-08	~2.29e-06	
O=C1CN2CCN(CC2)Cc2cccc(c2)Nc2cc(ccn2)-c2cnc(nc2)NC(C(=O)O)CCN1 (stereo not shown) [Compound 117]	<4.52		1.41e-07	4.57e-07		16.31
O=C1CN2CC3CCC(C2)N3Cc2cccc(c2)Nc2cc(ccn2)-c2cnc(nc2)NCCCN1 [Compound 41]		23.3	7.41e-07	1.05e-07	1.7e-06	
O=C1CN2CCN(CC2)Cc2cccc(c2)Nc2cc(ccn2)-c2cnc(nc2)NC(C(=O)O)CCN1 (stereo not shown) [Compound 119]	<4.52			2.75e-07		58.90
CC1CN2CCN1Cc1cccc(c1)Nc1cc(ccn1)-c1cnc(nc1)N1CC(O)CC1CCNC(=O)C2 (stereo not shown) [Compound 59]			4.17e-07	3.47e-08	8.51e-07	
NS(=O)(=O)NC1CC2CCNC(=O)CN3CCN(CC3)Cc3cccc(c3)Nc3cc(ccn3)-c3cnc(nc3)N2C1 (stereo not shown) [Compound 86]		68		3.39e-07	> 1e-05	

Structure (SMILES)	eEF2K_C_PThr56 pIC50 (eEF2K)	remaining activity at 1 µM (PIK3C3 lipid kinase) [%]	IC50 (PIK3C3 lipid kinase) [M]	IC50 (EF2K) [M]	IC50 (eEF2K) [M]	VPS34_1microM_%ofcntrl (PIK3C3 lipid kinase) [%]
O=C1CN2CCN(CC2)Cc2cccc(c2)Nc2cc(ccn2)-c2cnc(nc2)CN(C(=O)C2CC2)CCN1 [Compound 131]		56.2		6.17e-08	2.51e-06	
CN1c2cccc(c2)Nc2cc(ccn2)-c2cnc(nc2)NCCCNC(=O)CN2CCC1CC2 [Compound 101]		31.1		2e-07	3.98e-06	
O=C1CN2CCN(CC2)Cc2cccc(c2)Nc2cc(ccn2)-c2cnc(cn2)NCCCN1 [Compound 39]		45.7		2.75e-07	1.23e-05	
O=C1CN2CCN(CC2)Cc2cccc(c2)Nc2cc(ccn2)-c2ccc(nc2)NCCCN1 [Compound 67]		34		~3.55e-07	3.98e-06	
COC(=O)C1CCNC(=O)CN2CCN(CC2)Cc2cccc(c2)Nc2cc(ccn2)-c2cnc(nc2)N1 (single isomer, unassigned) [Compound 118]		70.6		3.09e-07	1.55e-05	
O=C1CN2CCN(CC2)C2(CC2)c2cccc(c2)Nc2cc(ccn2)-c2cnc(nc2)NCCCN1 [Compound 73]			> 1e-05	5.25e-06	> 1e-05	
NC1CC2CCNC(=O)CN3CCN(CC3)Cc3cccc(c3)Nc3cc(ccn3)-c3cnc(nc3)N2C1 (stereo not shown) [Compound 84]		21.6	3.24e-07	7.24e-08	1.02e-06	
O=C1CN2CCN(CC2)Cc2cccc(c2F)Nc2cc(ccn2)-c2cnc(nc2)NCCCN1 [Compound 1]			4.9e-08	1.05e-08	3.63e-07	
O=C1CN2CCC(CC2)Oc2cccc(c2)Nc2cc(ccn2)-c2cnc(nc2)NCCCN1 [Compound 90]			6.17e-08	1.91e-08	5.25e-07	
CC1CN2CCN1Cc1cccc(c1)Nc1cc(ccn1)-c1cnc(nc1)NCCCNC(=O)C2 (stereo not shown) [Compound 36]			7.24e-07	1.62e-08	9.77e-07	
NC(=O)C1CCNC(=O)CN2CCN(CC2)Cc2cccc(c2)Nc2cc(ccn2)-c2cnc(nc2)N1 (stereo not shown) [Compound 121]			2.63e-06	5.13e-06	> 1e-05	
O=C1CN2CCN(CC2)Cc2cccc(c2)Nc2cc(ccn2)-c2cnc(nc2)CN(CC2CC2)CCN1 [Compound 128]		74.5		2.88e-07	4.17e-07	
CN1CCCNC(=O)CN2CCN(CC2)Cc2cccc(c2)Nc2cc(ccn2)-c2ccc1nc2 [Compound 72]		50.8		2.88e-07	5.89e-06	
CC1CN2CCN1Cc1cccc(c1)Nc1cc(ccn1)-c1cnc(nc1)N1CC(O)CC1CCNC(=O)C2 (stereo not shown) [Compound 60]		86.8		6.61e-08	4.79e-06	
O=C1CN2CCN(Cc3cccc(c3)Nc3cc(ccn3)-c3cnc(nc3)NCCCN1)C(CO)C2 (single isomer, unassigned) [Compound 8]			1.66e-07	4.17e-08	2.57e-06	9.64
O=C1CN2CCC(CC2)Cc2cccc(c2)Nc2cc(ccn2)-c2ccc(nc2)NCCCN1 [Compound 140]		46.4		3.8e-06	8.51e-06	
